According to article PMC8536644, “Enigmatic mechanism of the N-vinylpyrrolidone hepatocarcinogenicity in the rat” (Archives of Toxicology, 2021):
Several values for one entry are separate records, joined by “and”; a condition that tells them apart may be missing. Equal entries are not always repeated.

Legend:
CYP2E1 = assay: Lauric acid hydroxylase assay, 11-hydroxylation; type: in vivo, rat
Protocol: ^14C-labelled lauric acid (55 mCi/mmol) dissolved in ethanol (0.1 mCi/mL; total volume 2.5 mL) was purchased from American Radiolabeled Chemicals. 10 µL of this solution were diluted with methanol to 2 mL. The purity was checked by radio-HPLC. For the enzyme activity determinations 1.21 mL of this solution were treated in the thermomixer at 40 °C and 300 rpm until the ethanol was completely evaporated. The residue was taken up in 550 µL DMSO and checked on the incubation days by radio-HPLC and by liquid scintillation counting (LSC). To this end the just-mentioned solution in DMSO (nominally 8.14 MBq/mL) was 100-fold diluted with methanol, 50 µL of the resultant solution used for the HPLC analysis, 100 µL for the LSC analysis (488,400 dpm/100 µL).
For the determination of the lauric acid hydroxylase activity the liver microsomal fractions (prepared as described in the preceding chapter “Aryl hydrocarbon receptor”) derived from the NVP-treated (and untreated control) male rats were adjusted with TrisHCl pH 7.5–20 mg protein/mL. Obtained samples were measured in duplicates. Controls were heat-denatured samples (15 min at 99 °C in the thermomixer at 450 rpm), zero-time samples (reaction stopped immediately after adding substrate) and buffer controls (TrisHCl pH 7.5, no microsomal protein). 155 µL master mix (100 mM TrisHCl pH 7.5, 10 mM MgCl2, 2 mM 5’AMP-Na2, 5 mM G-6-P, 10 U G-6-P-DH) and 30 µL sample were preincubated for 3 min at 37 °C. Subsequently 10 µL of a 2-mM NADPH solution and 5 µL ^14C-lauric acid (8.14 MBq/mL) were added (lauric acid final concentration in the incubation 100 µM). The reaction was run for 20 min at 37 °C in the thermomixer (450 rpm) and stopped by the addition of 200 µL ice-cold acetone. Proteins were sedimented by centrifugation (6000 g, 10 min, 4 °C) and the supernatant used for the analysis by HPLC (system: Agilent 1260 infinity, column: EC250/4 Nucleosil, 120–5 C18, radio detector: Berthold FlowStar LB 513) under the following conditions: Injection volume 50 µL; eluent A: Methanol/acetic acid/water (600/5/400 mL), eluent B: Methanol; gradient: 0–10 min 100% eluent A, 10–20 min 0–100% eluent B, 20–30 min 100% eluent B, 30–40 min 100% eluent A; flow rate: 0.8 mL/min. In order to ascertain the assignment of the peaks to 11-hydroxylauric acid versus 12-hydroxylauric acid the retention times and mass spectra (HPLC-QTOF/MS) of a 12-hydroxylauric acid standard were compared with the lauric acid incubates (parameters of the HPLC-QTOF/MS system: (U)HPLC: Agilent 1200 und 1290; MS instrument: MS324/Agilent/S/N US10318001; radio detector: Raytest/Mirastar Masshunter Data Acquisition B.06.01; ionisation mode: ESI, negative mode).

rat liver cells = conditions: rats, ref BASF [2011], cited from earlier work
primary rat hepatocytes = assay: Gene expression analysis (Affymetrix) in cultivated rat hepatocytes; type: cell-based; conditions: 24 h; for Nrg1 upregulation / PDK4 upregulation / Atf3 upregulation: adj. p < 0.001
Protocol: Isolation and cultivation of primary rat hepatocytes was performed according to a published standard operation procedure (Godoy et al. [2013]) and Affymetrix gene array analysis as described in Grinberg et al. ([2018]). Briefly, male Wistar rats with a body weight of 220–300 g were purchased from Charles River (Sulzfeld, Germany). The animals had free access to food (sniff, Soest, Germany) and water and were kept under controlled temperature (18–26 °C), humidity (30–70%) and lighting (12 h light/dark circle). Prior to any experimental procedure, the animals were acclimated for a minimum of 6 days. This study was approved by the local committee for the welfare of experimental animals and was performed in accordance with national legislation. RNA was extracted from cultivated primary hepatocytes as described by Heise et al. ([2012]). Incubation of the cultivated rat hepatocytes with the test compounds was performed for 24 h. Rat hepatocytes were cultivated as sandwich cultures using 6well dishes. Three independent incubations with the test compound were performed. For Affymetrix gene chip analysis samples isolated from the 6-well dishes were stored in RNAprotect reagent from Qiagen until isolation of RNA. The RNA was quantified using a NanoDrop N-1000 spectrophotometer, and the integrity of RNA was confirmed with a standard sense automated gel electrophoresis system. Samples were used for transcriptional profiling only when their RNA quality indicator (RQI) number was > 8. First-strand cDNA was synthesized from 100 ng total RNA using an oligo-dT primer with an attached T7 promoter sequence, followed by the complementary second strand. The double-stranded cDNA molecule was used for in vitro transcription (IVT, standard Affymetrix procedure) using Genechip 3′ IVT Express Kit. During synthesis of the aRNA (amplified RNA, also commonly referred to as cRNA), a biotinylated nucleotide analogue was incorporated, which served as a label for the message. After amplification, aRNA was purified with magnetic beads and 15 µg of aRNA was fragmented with the fragmentation buffer as per the manufacturer’s instructions. Then 12.5 µg fragmented aRNA was hybridized with Affymetrix Rat Genome 230 2.0 Arrays. The chips were placed in a GeneChip Hybridization Oven-645 for 16 h at 60 rpm and 45 °C. For staining and washing, Affymetrix HWS kits were used on a Genechip Fluidics Station-450. For scanning, the Affymetrix GeneChip Scanner-3000-7G was used, and the image and quality control assessments were performed with Affymetrix GCOS software. All reagents and instruments were acquired from Affymetrix (Affymetrix, Santa Clara, CA, USA). The generated CEL files were used for further statistical analysis as described in Grinberg et al., 2018).

[1] = lauric acid 11-hydroxylation, liver microsomes, 20 ppm NVP, individual animals 19-24

## C=CN1CCCC1=O [NVP, N-vinylpyrrolidone]
CYP2E1; 20 ppm, male rat liver microsomes
  Lauric acid 11-hydroxylation activity: 5149 ± 2010 peak area/min/mg protein
CYP2E1; 20 ppm, statistically not significant
  Increase of lauric acid 11-hydroxylation vs vehicle control: 1.1 fold
CYP2E1; [1]
  ω-1-hydroxylase (CYP2E1-activity), enzyme activity individual: 7458 peak surface/min/mg protein and 7295 peak surface/min/mg protein and 3522 peak surface/min/mg protein and 5008 peak surface/min/mg protein and 5216 peak surface/min/mg protein and 2393 peak surface/min/mg protein
  ω-1-hydroxylase (CYP2E1-activity), peak surface: 9940 and 10,040 and 5283 and 7513 and 7824 and 3996
CYP2E1; lauric acid 11-hydroxylation, liver microsomes, 20 ppm NVP, vehicle 4512 ± 1050
  ω-1-hydroxylase (CYP2E1-activity), enzyme activity group (mean ± SD): 5149 ± 2010 peak surface/min/mg protein
Rat liver cells; inhalation for 7 days
  Concentration from which liver cell proliferation is significantly increased: ≥ 1 ppm
Rat liver cells; inhalation for 28 days
  Concentration giving a significant increase of liver cell proliferation (zones 3 and 2): 0.5 ppm
Primary rat hepatocytes; 40 µM
  Nrg1 upregulation: 3.5 fold
  PDK4 upregulation: 3.5 fold
Primary rat hepatocytes; 200 µM
  Atf3 upregulation: 5.1
  Nrg1 upregulation: 6.2 fold
  PDK4 upregulation: 5.9 fold
Primary rat hepatocytes; 1000 µM
  Atf3 upregulation: 7.1
  Nrg1 upregulation: 7.3 fold
  PDK4 upregulation: 8.8 fold
Primary rat hepatocytes; 8, 40, 200 and 1000 µM tested
  Lowest concentration with expression changes (PCA): 8 µM
